This note sets out measurements from patent US4789661A, “De-(acetylglucosaminyl)-di(dehydro)-deoxy teicoplanin derivatives” (Gruppo Lepetit S.p.A., priority 1985, dated 1988).

Converted amounts (≈) assume the structure as drawn. Bounds are passed on as bounds.

Data set [1] can be described thus: Acid-base titration (pKMCS) in 2-methoxyethanol/water 4:1. The class given is physicochemical. To be noted: potentiometric; 2-methoxyethanol (Methyl Cellosolve)/water 4:1 (v/v). The method, then:
Acid-base titration (pKMCS) were carried out in 2-methoxyethanol (Methyl Cellosolve®) water 4:1 (v/v) solution, with 0.01 NaOH after addition of suitable amounts of 0.01N hcl. The equivalent weights (EW) given are corrected for the solvent content and the inorganic residue.

In the next data set the test system is E. Coli SKF 12140. Kind of data set: In vitro antimicrobial activity (MIC), standard dilution test. The data set is classed as cell-based. To be noted: inoculum about 10^4 CFU/ml, 18-24 h at 37° C. The method, then:
(§1) Isosensitest broth (Oxoid) and Todd-Hewitt broth (Difco) are used for growing staphylococci and streptococci, respectively. Broth cultures are diluted so that the final inoculum is about 10^4 colony forming units/ml (CFU/ml).

For the next data set, the system named is P. vulgaris ATCC 881. The description is as above. The data set is classed as cell-based. To be noted: inoculum about 10^4 CFU/ml, 18-24 h at 37° C. The method, then: as §1
The test system of the next data set is S. aureus ATCC 6538. The data set is described as above. The data set is classed as cell-based. To be noted: inoculum about 10^4 CFU/ml, 18-24 h at 37° C. Here is the method: as §1
The test system of the next data set is S. aureus TOUR. The description is as above. To be noted: inoculum about 10^4 CFU/ml, 18-24 h at 37° C. The class given is cell-based. The method, then: as §1
Data set [2] relates to S. epidermidis ATCC 12228. Described as above. The class given is cell-based. To be noted: inoculum about 10^4 CFU/ml, 18-24 h at 37° C. The method, then: as §1
The next data set concerns S. faecalis ATCC 7080. Described as above. The class given is cell-based. To be noted: inoculum about 10^4 CFU/ml, 18-24 h at 37° C. Here is the method: as §1
The subject of a further data set is S. pneumoniae UC 41. Described as above. To be noted: inoculum about 10^4 CFU/ml, 18-24 h at 37° C. The data set is classed as cell-based. Here is the method: as §1
The test system of the next data set is S. pyogenes C 203. Described as above. The class given is cell-based. To be noted: inoculum about 10^4 CFU/ml, 18-24 h at 37° C. The method, then: as §1
Data set [3] deals with S. Simulans L 1142 (methicillin-resistant). Put plainly: MIC in microtiter against coagulase-negative staphylococci, clinical isolates. The data set is classed as cell-based. To be noted: S. Simulans L 1142, methicillin-resistant clinical isolate, Iso-sensitest broth, approximately 10^4 CFU/ml. The method, then:
(§2) In a representative experiment, compound III i.e. (35,52-di-dehydro-34-deoxy-teicoplanin aglycon) was tested against some clinically isolated coagulasenegative staphylococi. The results of the test, in comparison with teicoplanin, are reported below in Table VII, The MIC were determined in microtiter using Iso-sensitest broth (Oxoid Co.) and approximately 10^4 CFU/ml as the inoculum.

The subject of the next data set is S. epidermidis L 1378. The data set is described as above. The data set is classed as cell-based. To be noted: S. epidermidis L 1378 clinical isolate, Iso-sensitest broth, approximately 10^4 CFU/ml. The method, then: as §2
The test system of data set [4] is S. haemoliticus L 1520 (methicillin-resistant). The data set is described as above. The data set is classed as cell-based. To be noted: S. haemoliticus L 1520, methicillin-resistant clinical isolate, Iso-sensitest broth, approximately 10^4 CFU/ml. Here is the method:
as §2

Another data set concerns S. hominis L 1070. The data set is described as above. The class given is cell-based. To be noted: S. hominis L 1070 clinical isolate, Iso-sensitest broth, approximately 10^4 CFU/ml. Here is the method: as §2
Data set [5] concerns S. simulans L 785 (methicillin-resistant). Described as above. The class given is cell-based. To be noted: S. simulans L 785, methicillin-resistant clinical isolate, Iso-sensitest broth, approximately 10^4 CFU/ml. The method, then:
as §2

The subject of another data set is S. warneri L 1375. The data set is described as above. The data set is classed as cell-based. To be noted: S. warneri L 1375 clinical isolate, Iso-sensitest broth, approximately 10^4 CFU/ml. Here is the method:
as §2

The test system of data set [6] is experimental infection in mice. Kind of data set: Experimental infection in mice (V. Arioli et al.). The class given is in vivo. The source says: In addition to their antibacterial activity in vitro, the compounds of the invention show also antibacterial activity in in vivo experimetns.

As to teicoplanin A2 [reference compound], in data set [1], the “pKmcs (COOH)” value was found to be 5.0 and the “pKmcs (NH2)” value worked out at 7.1.
For `NC1C(=O)NC2Cc3ccc(c(Cl)c3)Oc3cc4cc(c3O)Oc3ccc(cc3Cl)CC3=NC(=O)C(NC(=O)C4NC(=O)C(NC2=O)c2cc(O)cc(c2)Oc2cc1ccc2O)c1ccc(O)c(c1)-c1c(O)cc(O)cc1C(C(=O)O)NC3=O` (centres unmarked) [Compound III, 35,52-didehydro-34-deoxy-teicoplanin aglycon], the MIC against E. Coli SKF 12140 is more than 128 µg/mL; with P. vulgaris ATCC 881, more than 128 µg/mL; in the data set with S. aureus ATCC 6538, 0.25 µg/mL (≈ 0.212 µM); in the data set on S. aureus TOUR it was 0.25 µg/mL (≈ 0.212 µM); in data set [2] it was 0.12 µg/mL (≈ 0.102 µM); in the data set on S. faecalis ATCC 7080 it was 1 µg/mL (≈ 0.847 µM). The MIC with S. pneumoniae UC 41 is 1 µg/mL (≈ 0.847 µM); with S. pyogenes C 203, 1 µg/mL (≈ 0.847 µM); in data set [3], 0.125 µg/mL (≈ 0.106 µM); against S. epidermidis L 1378, 0.125 µg/mL (≈ 0.106 µM); in [4], 0.5 µg/mL (≈ 0.423 µM); against S. hominis L 1070, 0.125 µg/mL (≈ 0.106 µM). Moreover, the MIC is 0.125 µg/mL (≈ 0.106 µM) in [5] and 1 µg/mL (≈ 0.847 µM) with S. warneri L 1375. Further, the ED50 in data set [6] was found to be 5 mg/kg.
In the case of `N[C@H]1C(=O)N[C@@H]2Cc3ccc(c(Cl)c3)Oc3cc4cc(c3O)Oc3ccc(cc3Cl)[C@@H](O)[C@@H]3NC(=O)[C@H](NC(=O)[C@@H]4NC(=O)[C@@H](NC2=O)c2cc(O)cc(c2)Oc2cc1ccc2O)c1ccc(O)c(c1)-c1c(O)cc(O)cc1[C@@H](C(=O)O)NC3=O` [deglucoteicoplanin, reference compound], in data set [1], the “pKmcs (COOH)” value was 4.9 and the “pKmcs (NH2)” value was 6.9.
On to teicoplanin [reference compound], for which the MIC in [3] worked out at 0.125 µg/mL; in the data set with S. epidermidis L 1378 it was 0.5 µg/mL; in data set [4], 4 µg/mL; in the data set on S. hominis L 1070, 0.25 µg/mL; in data set [5], 0.25 µg/mL; against S. warneri L 1375, 2 µg/mL.
Consider `NC1C(=O)NC2Cc3ccc(c(Cl)c3)Oc3cc4cc(c3O)Oc3ccc(cc3Cl)CC3=NC(=O)C(NC(=O)C4NC(=O)C(NC2=O)c2cc(O)cc(c2)Oc2cc1ccc2O)c1ccc(O)c(c1)-c1c(O[C@H]2O[C@H](CO)[C@@H](O)[C@H](O)[C@@H]2O)cc(O)cc1C(C(=O)O)NC3=O` (stereo partly drawn) [Compound II, 42-α-D-mannosyl-35,52-didehydro-34-deoxy-teicoplanin aglycon], for which the minimum inhibitory concentration (MIC) against E. Coli SKF 12140 is more than 128 µg/mL; in the data set on P. vulgaris ATCC 881 it was more than 128 µg/mL; with S. aureus ATCC 6538, 0.25 µg/mL (≈ 0.186 µM); with S. aureus TOUR it was 0.25 µg/mL (≈ 0.186 µM); in data set [2], 0.5 µg/mL (≈ 0.372 µM); against S. faecalis ATCC 7080 it was 1 µg/mL (≈ 0.745 µM). Also, the MIC in the data set with S. pneumoniae UC 41 and in the data set with S. pyogenes C 203 was 2 µg/mL (≈ 1.49 µM) in each case. The ED50 in [6] was 5.8 mg/kg. Further, the “pKmcs (COOH)” value in [1] stood at 4.8. The “pKmcs (NH2)” value in data set [1] came to 6.9.
For `NC1C(=O)NC2Cc3ccc(c(Cl)c3)Oc3cc4cc(c3O)Oc3ccc(cc3Cl)C=C3NC(=O)C(NC(=O)C4NC(=O)C(NC2=O)c2cc(O)cc(c2)Oc2cc1ccc2O)c1ccc(O)c(c1)-c1c(O)cc(O)cc1C(C(=O)O)NC3=O` (single isomer, unassigned) [Compound IV, (36,37-cis-51,52-trans)-34,35-didehydro-34-deoxy-teicoplanin-aglycon], the MIC in the data set with E. Coli SKF 12140 was more than 128 µg/mL; against P. vulgaris ATCC 881, 128 µg/mL (≈ 108 µM); in the data set on S. aureus ATCC 6538, 1 µg/mL (≈ 0.847 µM); in the data set with S. aureus TOUR, 1 µg/mL (≈ 0.847 µM); in data set [2], 0.12 µg/mL (≈ 0.102 µM); in the data set on S. faecalis ATCC 7080 it was 8 µg/mL (≈ 6.77 µM). For the same compound, the MIC against S. pneumoniae UC 41 and in the data set with S. pyogenes C 203 was 4 µg/mL (≈ 3.39 µM) each time. Besides, the “pKmcs (COOH)” value in data set [1] was 4.8. Besides, the “pKmcs (NH2)” value in [1] is reported as 7.1.
For the compound `NC1C(=O)NC2Cc3ccc(c(Cl)c3)Oc3cc4cc(c3O)Oc3ccc(cc3Cl)C=C3NC(=O)C(NC(=O)C4NC(=O)C(NC2=O)c2cc(O)cc(c2)Oc2cc1ccc2O)c1ccc(O)c(c1)-c1c(O)cc(O)cc1C(C(=O)O)NC3=O` (single isomer, unassigned) [Compound V, (36,37-trans-51,52-trans)-34,35-didehydro-34-deoxy-teicoplanin-aglycon], the minimal inhibitory concentration (MIC) was more than 128 µg/mL in the data set with E. Coli SKF 12140; more than 128 µg/mL against P. vulgaris ATCC 881; 2 µg/mL (≈ 1.69 µM) in the data set with S. aureus ATCC 6538; 4 µg/mL (≈ 3.39 µM) against S. aureus TOUR; 0.4 µg/mL (≈ 0.339 µM) in [2]; 16 µg/mL (≈ 13.5 µM) in the data set on S. faecalis ATCC 7080. Further, the MIC against S. pneumoniae UC 41 and in the data set with S. pyogenes C 203 was 8 µg/mL (≈ 6.77 µM) each time.
On to “42-α-D-mannosyl-56-N-acyl-β-D-glucosaminyl-35,52-didehydro-34-d eoxy-teicoplanin aglycon [Compound I]”, for which the MIC was more than 128 µg/mL in the data set on E. Coli SKF 12140; more than 128 µg/mL against P. vulgaris ATCC 881; 0.5 µg/mL in the data set on S. aureus ATCC 6538; 0.5 µg/mL in the data set with S. aureus TOUR; 0.25 µg/mL in data set [2]; 1 µg/mL against S. faecalis ATCC 7080. Moreover, the MIC in the data set with S. pneumoniae UC 41 and with S. pyogenes C 203 was 0.06 µg/mL each time. The compound also gave a median effective dose (ED50) in [6] of 0.35 mg/kg. The “pKmcs (COOH)” value in data set [1] was 5.0. In addition, in data set [1], the “pKmcs (NH2)” value is recorded as 6.9.

In general, MIC refers to the least concentration at which growth counts as inhibited. Low readings indicate greater potency, high ones weaker potency. Broadly, the ED50 is the midpoint of the dose-response relation.
